Data taken from patent US5866577A, “Aromatic amidine derivatives and salts thereof” (priority 1991, dated 1999).
Counter-ions that a name gives are not always drawn.

Assays:
[1] = Measurement of Solubility in Water
Description: A fixed amount of water was added to a varying amounts of each sample, and the mixture was agitated on a shaker at 25° C. for 10 minutes.

[2] = test system: human blood plasma (clotting time); assay: Measurement of Anticoagulant Activity (plasma clotting time, CT2); type: biochemical; conditions: concentration which doubles the control clotting time, 37° C.
Description: Measurement of Anticoagulant Activity A blood plasma sample was prepared from human blood using a centrifuge. […] Thereafter, clotting time was measured using CLOTEC (Sanko Junyaku Co., Ltd.). A clotting time measured without adding a compound to be tested was used as a control, and a concentration of the test compound which doubles the control clotting time was calculated (hereinafter referred to as "CT2") as an index of the anticoagulant activity.

human FXa = human FXa (Homo sapiens, UniProt P00742); assay: Measurement of Activated Blood Coagulation Factor X (FXa) Inhibition Activity; type: biochemical; conditions: substrate S-2222, 37° C., 15 minutes
Description: Measurement of Activated Blood Coagulation Factor X (FXa) Inhibition Activity
A 180 μl portion of physiological saline solution containing a compound to be tested was mixed with 200 μl of Tris-HCl buffer (pH 8.4) and 100 μl of 1 mM S-2222 (KabiVitrum AB) aqueous solution, and the mixture was incubated at 37° C. 20 μl of Tris-HCl buffered saline (pH 7.45) containing 0.6 unit/ml of human FXa was added to the mixture. After 15 minutes of incubation at the same temperature, the reaction was stopped by adding 100 μl of 60% acetic acid, and absorbance of the reaction mixture was measured. A reaction mixture with no addition of a test compound was used as a blank, and another reaction mixture in which 60% acetic acid was added prior to the addition of FXa was used as a control.

thrombin = molecular target: T1, thrombin (Bos taurus, UniProt P00735); assay: Measurement of Thrombin Inhibition Activity; type: biochemical
T1 construct: thrombin (for topical application use, Sankyo Co., Ltd.); purchased Sankyo Co., Ltd
Description: Measurement of Thrombin Inhibition Activity
A 100 μl portion of Tris-HCl buffered saline (pH 7.45) (TBS) containing 6 mg/ml of fibrinogen (Type 1, Daiichi Pure Chemicals Co., Ltd.) was mixed with 100 μl of physiological saline solution. At 37° C., 100 μl of Tris-HCl buffered saline (pH 7.45) (TBS) containing varying amounts of thrombin (for topical application use, Sankyo Co., Ltd.) was added to the mixture prepared above to measure clotting time using CLOTEC (Sanko Junyaku Co., Ltd.) and to prepare a calibration curve.

[3] = test system: activated partial thromboplastin time (APTT); assay: Measurement of Anticoagulant Activity in Oral Administration (APTT); type: in vivo, male STD:Wistar rat; conditions: rat, 100 mg/kg
Description: Measurement of Anticoagulant Activity in Oral Administration
An aqueous solution of each compound to be tested was administered orally to each male STD:Wistar rat individual under an anesthetic, at a dose of 10 ml/kg body weight. Blood samples were collected periodically and blood plasma preparations were obtained from the samples to measure activated partial thromboplastin time (APTT). In the same manner, APTT was measured by administering pure water and used as a control. A test/control APTT ratio was calculated and used as an index of the anticoagulant activity.

human FXa, sequence (P00742 235-488 limits assumed): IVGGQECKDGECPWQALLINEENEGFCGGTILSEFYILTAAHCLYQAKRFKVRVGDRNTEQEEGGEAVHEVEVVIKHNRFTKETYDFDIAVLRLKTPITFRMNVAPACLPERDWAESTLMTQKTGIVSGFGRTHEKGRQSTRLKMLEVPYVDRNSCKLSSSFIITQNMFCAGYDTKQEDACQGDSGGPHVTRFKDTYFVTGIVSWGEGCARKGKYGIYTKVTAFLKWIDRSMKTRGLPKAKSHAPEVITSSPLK
human FXa, sequence (P00742 41-179 limits assumed): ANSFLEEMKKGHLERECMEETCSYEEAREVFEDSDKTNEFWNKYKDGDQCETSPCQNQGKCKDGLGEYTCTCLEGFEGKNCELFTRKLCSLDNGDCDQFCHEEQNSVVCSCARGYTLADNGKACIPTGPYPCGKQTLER

solubility at 10 min [1] | Structure (SMILES) | Anti-Coagulation CT2 [2] | IC50 (human FXa) | IC50 (thrombin) | Test/Control APTT Ratio ([3]; 0.5 hr) | Test/Control APTT Ratio ([3]; 1 hr) | Test/Control APTT Ratio ([3]; 2 hr) | Test/Control APTT Ratio ([3]; 4 hr)
≥ 600 mg/mL | Cl.Cl.N=C(N)c1ccc2oc(C(Cc3ccc(O[C@H]4CCNC4)cc3)C(=O)O)cc2c1 (stereo partly drawn) [Inventive Example 21, 2-(5-amidino-2-benzofuranyl)-3-[4-[((3S)-3-pyrrolidinyl)-oxy]phenyl]propionic Acid Dihydrochloride] | – | – | – | – | – | – | –
≥ 450 mg/mL | CCn1c(CC(C(=O)O)c2ccc(O[C@H]3CCNC3)cc2)cc2ccc(C(=N)N)cc21.Cl.Cl (stereo partly drawn) [Inventive Example 73, 3-(6-amidino-1-ethyl-2-indolyl)-2-[4-[((3S)-3-pyrrolidinyl)oxy]phenyl]propionic Acid Dihydrochloride] | – | – | – | – | – | – | –
– | CC(=N)N1CC[C@H](Oc2ccc(C(Cc3nc4cc(C(=N)N)ccc4s3)C(=O)O)cc2)C1.Cl.Cl (stereo partly drawn) [Inventive Example 89, 2-[4-[((3S)-1-acetimidoyl-3-pyrrolidinyl)oxy]phenyl]-3-(5-amidino-2-benzothiazolyl)propionic Acid Dihydrochloride] | 5 µM | 600 nM | > 600000 nM | 1.24 | 1.22 | 1.17 | 1.14
– | CCn1c(CC(C(=O)O)c2ccc(OC3CCN(C(C)=N)CC3)cc2)cc2ccc(C(=N)N)cc21.Cl.Cl (stereo not shown) [Inventive Example 98, 2-[4-[(1-acetimidoyl-4-piperidinyl)oxy]phenyl]-3-(6-amidino-1-ethyl-2-indolyl)propionic Acid Dihydrochloride] | 0.3 µM | 11 nM | 2500 nM | 4.07 | 3.96 | 3.37 | 2.19
≥ 450 mg/mL | CC(=N)N1CC[C@H](Oc2ccc(C(CC(=O)O)Cc3cc4cc(C(=N)N)ccc4s3)cc2)C1.Cl.Cl (stereo partly drawn) [Inventive Example 104, 3-[4-[((3S)-1-acetimidoyl-3-pyrrolidinyl)oxy]phenyl]4-(5-amidinobenzo[b]thien-2-yl)butyric Acid Dihydrochloride] | 0.64 µM | 86 nM | 230000 nM | – | – | – | –
– | CCn1c(CC(C(=O)O)c2ccc(O[C@H]3CCN(C(C)=N)C3)cc2)cc2ccc(C(=N)N)cc21 (stereo partly drawn) [Inventive Example 105, 2-[4-[((3S)-1-(acetimidoyl-3-pyrrolidinyl)oxy]phenyl]-3-(6-amidino-1-ethyl-2-indolyl)propionic Acid Dihydrochloride] | 0.35 µM | 54 nM | 6800 nM | 2.69 | 3.60 | 2.41 | 1.66

Structure (SMILES) | solubility at 10 min [1] | Anti-Coagulation CT2 [2] | IC50 (human FXa) | IC50 (thrombin) | Test/Control APTT Ratio ([3]; 0.5 hr) | Test/Control APTT Ratio ([3]; 1 hr) | Test/Control APTT Ratio ([3]; 2 hr) | Test/Control APTT Ratio ([3]; 4 hr)
CC(=N)N1CCC[C@H]1COc1ccc(C(Cc2cc3cc(C(=N)N)ccc3s2)C(=O)O)cc1.Cl.Cl (stereo partly drawn) [Inventive Example 96, 2-[4-[((2S)-1-acetimidoyl-2-pyrrolidinyl)methoxy]phenyl]-3-(5-amidinobenzo[b]thien-2-yl)propionic Acid Dihydrochloride] | ≥ 400 mg/mL | 0.54 µM | 44 nM | 29000 nM | 1.68 | 1.64 | 1.57 | 1.42
CC(=N)N1CCC(Oc2ccc(C(Cc3ccc4ccc(C(=N)N)cc4c3)C(=O)O)cc2)CC1.Cl.Cl (stereo not shown) [Inventive Example 108, 2-[4-[(1-acetimidoyl-4-piperidinyl)oxy]phenyl]-3-(7-amidino-2-naphthyl)propionic Acid Dihydrochloride] | ≥ 350 mg/mL | 0.3 µM | 18 nM | 250000 nM | 2.12 | 2.18 | 1.69 | 1.39
